The structures appear in SMILES notation.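 Compound exposure: 48 hours, 5 concentrations, 96-well plates. Abbreviation: GI50, concentration required for 50% inhibition of growth. Definition used: TGI = concentration required for complete inhibition of growth.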 Where only a bound is given, the exact number is not on record here.

The source of these data is PubChem BioAssay (NCI).

Among the test systems are DU-145 prostate; MDA-MB-231 breast; HCC-2998 colon; SF-539 CNS; UO-31 renal; OVCAR-3 ovarian; OVCAR-5 ovarian; MOLT-4 leukemia; CAKI-1 renal; MCF7 breast.
Holding throughout (assay): DTP human tumour cell line panel, 48 h

`CCN(CC)CC(C)(C)C(=O)/C=C/c1ccc(/C=C/C(=O)C(C)(C)CN(CC)CC)cc1`: the TGI (usually the concentration at which net growth stops) came to 5.29 µM with DU-145 prostate; 0.756 µM in the assay on MDA-MB-231 breast; 1.56 µM in the assay on HCC-2998 colon; 2.54 µM in the assay on SF-539 CNS; 4.96 µM in the assay with UO-31 renal; 1.76 µM in the assay on OVCAR-3 ovarian. The TGI in the assay with OVCAR-5 ovarian was found to be 2.93 µM; with MOLT-4 leukemia, 0.546 µM; with CAKI-1 renal, 1.99 µM.

Regarding `C=C1C(=O)OC2CC3(C)CCCC(C)C3=CC12` (stereo unspecified), the TGI with DU-145 prostate was 14.7 µM; with MDA-MB-231 breast it was 26.9 µM; in the assay with HCC-2998 colon, 16.2 µM; with SF-539 CNS it was 3.79 µM; in the assay on UO-31 renal, 12.5 µM; in the assay with OVCAR-5 ovarian, 23.4 µM. Moreover, the TGI with MOLT-4 leukemia was 9.04 µM; in the assay on MCF7 breast it was 5.28 µM; in the assay with CAKI-1 renal, 9.27 µM.

With `CC(=O)C1CCC2C3CC=C4CC(SC(=N)N)CCC4(C)C3CCC12C` (stereo unspecified), the GI50 – broadly, the concentration that inhibits growth by half – in the assay on DU-145 prostate was 3.13 µM; in the assay on SF-539 CNS, 1.87 µM; with UO-31 renal, 2.36 µM; in the assay with OVCAR-5 ovarian, 2.43 µM; with MOLT-4 leukemia, 1.78 µM; with CAKI-1 renal, 1.68 µM. Besides, the TGI with DU-145 prostate came out at 10.3 µM; in the assay with SF-539 CNS it was 3.96 µM; with UO-31 renal it was 7.54 µM; in the assay on OVCAR-5 ovarian it was 8.87 µM; in the assay with MOLT-4 leukemia, 4.19 µM; in the assay with CAKI-1 renal, 4.24 µM.

For `COc1ccc2c(c1)N(CCO)C1=C(C(=O)OC1)C2c1ccccc1` (stereo unspecified), the GI50 with DU-145 prostate was 1.74 µM; in the assay with MDA-MB-231 breast, 5.99 µM; in the assay with HCC-2998 colon it was 3.21 µM; in the assay on UO-31 renal it was 2.37 µM; with OVCAR-3 ovarian, 1.18 µM; in the assay with OVCAR-5 ovarian, 3.77 µM. In addition, the values for the GI50 in the assay on MOLT-4 leukemia, in the assay on MCF7 breast and in the assay with CAKI-1 renal were 3.63 µM, 1.86 µM and 1.15 µM, respectively. Besides, the TGI with DU-145 prostate was 6.01 µM; in the assay with MDA-MB-231 breast, 41.7 µM; with HCC-2998 colon, greater than 50 µM; in the assay with UO-31 renal, greater than 50 µM; in the assay with OVCAR-3 ovarian it was 2.47 µM; in the assay on OVCAR-5 ovarian it was greater than 50 µM. For the same compound, the TGI in the assay with MOLT-4 leukemia, with MCF7 breast and in the assay with CAKI-1 renal was greater than 50 µM in each case.

With `COc1ccc(NC(=O)CCc2cc(C(C)(C)C)n[nH]2)cc1`, the TGI with HCC-2998 colon, in the assay with SF-539 CNS, with UO-31 renal, in the assay on OVCAR-3 ovarian, with OVCAR-5 ovarian and in the assay with MOLT-4 leukemia was greater than 100 µM throughout. In the assay with CAKI-1 renal, this compound returned a TGI greater than 100 µM.

On to `CC(=O)O[C@H]1C(=O)[C@@]2(C)[C@H]([C@H](OC(=O)c3ccccc3)[C@@]3(O)C[C@H](O)C(C)=C1C3(C)C)[C@]1(OC(C)=O)CO[C@@H]1C[C@@H]2O`, for which the TGI with DU-145 prostate, in the assay on MDA-MB-231 breast, with SF-539 CNS, with UO-31 renal, with OVCAR-3 ovarian and in the assay on OVCAR-5 ovarian was greater than 100 µM throughout. Besides, the TGI in the assay with MOLT-4 leukemia, with MCF7 breast and in the assay on CAKI-1 renal was greater than 100 µM throughout.

For `COC(=O)C1=C(O)[C@H](C(=O)OC)[C@]2(O)[C@@H](C(=O)OC)[C@H]1C[C@@H](c1ccc(OC(=O)/C=C/c3ccco3)cc1)[C@@H]2C(=O)OC`, the GI50 is 7 µM in the assay on HCC-2998 colon; 27.6 µM with OVCAR-3 ovarian; 19.1 µM in the assay on OVCAR-5 ovarian; 1.29 µM in the assay on MOLT-4 leukemia; 40.5 µM in the assay on MCF7 breast; 27 µM in the assay with CAKI-1 renal. Further, the TGI was 19.3 µM with HCC-2998 colon; 82.5 µM in the assay on OVCAR-3 ovarian; 43.3 µM in the assay with OVCAR-5 ovarian; 6.67 µM in the assay with MOLT-4 leukemia; greater than 100 µM with MCF7 breast; 86.8 µM in the assay on CAKI-1 renal.

As for `O=C(Nc1cccnc1)c1ccc2ccc3ccc(C(=O)Nc4cccnc4)nc3c2n1`, the GI50 with DU-145 prostate was 0.195 µM; in the assay on MDA-MB-231 breast it was 0.226 µM; in the assay on HCC-2998 colon, 0.0648 µM; with UO-31 renal it was greater than 100 µM; with OVCAR-3 ovarian, 0.242 µM; with MOLT-4 leukemia, 0.419 µM. For the same compound, the GI50 with MCF7 breast was 0.137 µM; in the assay with CAKI-1 renal, 0.135 µM. Moreover, the concentration for total growth inhibition (TGI) in the assay on DU-145 prostate, in the assay with MDA-MB-231 breast, in the assay with HCC-2998 colon, in the assay with UO-31 renal, with OVCAR-3 ovarian and with OVCAR-5 ovarian was greater than 100 µM each time. Further, the TGI in the assay on MOLT-4 leukemia, in the assay on MCF7 breast and in the assay on CAKI-1 renal was greater than 100 µM throughout.

Regarding `COc1ccc(/C=c2/sc3n(c2=O)NC(c2ccc(Cl)cc2)NN=3)cc1` (stereo unspecified), the TGI with HCC-2998 colon, with SF-539 CNS, with UO-31 renal, with OVCAR-3 ovarian, with OVCAR-5 ovarian and in the assay with MOLT-4 leukemia was greater than 100 µM throughout. The compound further displayed a TGI in the assay on CAKI-1 renal greater than 100 µM.

Turning to `Cc1cn2c(/C=C3/C(=O)Nc4ccc(F)cc43)c(C)nc2s1`, the GI50 was 9.58 µM with DU-145 prostate; 12.1 µM with MDA-MB-231 breast; 7.29 µM with SF-539 CNS; 6.62 µM in the assay with UO-31 renal; 3.5 µM in the assay on OVCAR-3 ovarian; 14.6 µM with OVCAR-5 ovarian. Besides, the GI50 in the assay on MOLT-4 leukemia is 5.02 µM; in the assay on MCF7 breast, 1.92 µM; in the assay with CAKI-1 renal, 9.21 µM. The TGI was 32.3 µM in the assay with DU-145 prostate; greater than 50 µM in the assay with MDA-MB-231 breast; 18.4 µM with SF-539 CNS; 40.8 µM with UO-31 renal; greater than 50 µM in the assay with OVCAR-3 ovarian; greater than 50 µM in the assay on OVCAR-5 ovarian. The TGI in the assay on MOLT-4 leukemia is 33.2 µM; with MCF7 breast, greater than 50 µM; in the assay with CAKI-1 renal, greater than 50 µM.

With `CCc1nc2cc(/C=C/C(=O)NO)ccc2c(=O)n1CCc1ccc(F)cc1`, the GI50 in the assay with DU-145 prostate is 1.94 µM; with MDA-MB-231 breast, 1.32 µM; in the assay with HCC-2998 colon, 1.59 µM; in the assay with SF-539 CNS, 1.73 µM; in the assay with UO-31 renal, 1.41 µM; in the assay on OVCAR-5 ovarian, 2.19 µM. For the same compound, the GI50 with MOLT-4 leukemia was 1.79 µM; with MCF7 breast it was 1.31 µM; in the assay on CAKI-1 renal, 2.27 µM. In addition, the total growth inhibition concentration (TGI) in the assay with DU-145 prostate was 8.67 µM; with MDA-MB-231 breast it was 4.67 µM; in the assay on HCC-2998 colon, 3.95 µM; in the assay on SF-539 CNS, 5.53 µM; in the assay on UO-31 renal, 3.11 µM; in the assay on OVCAR-5 ovarian it was greater than 100 µM. Moreover, the figures for the TGI with MOLT-4 leukemia, in the assay on MCF7 breast and with CAKI-1 renal were greater than 100 µM, greater than 100 µM and 6.12 µM, respectively.
